Structures are written as SMILES.

The test system of the first assay is MCH receptors. Description: MCH receptor activity class (method not given).
Conditions: not given
As to `Cc1cc(N(C)C)nc(N[C@H]2CC[C@@H](C(=O)NCc3ccccc3OC(F)(F)F)CC2)n1` [Example 2587, cis-4-{[4-(dimethylamino)-6-methylpyrimidin-2-yl]amino}-N-[2-(trifluoromethoxy)benzyl]cyclohexanecarboxamide], the class is given as 1.
Consider `Cc1cc(N(C)C)nc(N[C@H]2CC[C@@H](C(=O)NCc3cccc(I)c3)CC2)n1` [Example 2571, cis-4-{[4-(dimethylamino)-6-methylpyrimidin-2-yl]amino}-N-(3-iodobenzyl)cyclohexanecarboxamide], for which the class is reported as 1.

Still in this assay, the particulars now being: MCH receptor activity class 1-3 (percent of control at 10^-7 M or IC50).
Take `CCc1ccccc1NC(=O)NC[C@H]1CC[C@@H](Nc2cc(N(C)C)c3ccccc3n2)CC1` [compound 2377]: the class is 3 (Class 3 The value of percent of control at 10^−7 M was more than 60% or the value of IC50 was more than 200 nM.).
As for `CCc1cccc(C)c1NC(=O)NC[C@H]1CC[C@@H](Nc2nc3c(c(N(C)C)n2)CCCC3)CC1` [compound 2454], the class is reported as 1 (Class 1: The value of percent of control at 10^−7 M was less than 40% or the value of IC50 was less than 50 nM.).

The same assay, now with this note: MCH receptor; class by percent of control at 10^-7 M or IC50.
As to `CN(C)c1cc(N[C@H]2CC[C@@H](NC(=O)C3=Cc4cc(Cl)ccc4OC3)CC2)nc2ccccc12` [compound 143], the class is on record as 3 (Class 3 The value of percent of control at 10^−7 M was more than 60% or the value of IC50 was more than 200 nM.).
Consider `CN(C)c1nc(N[C@H]2CC[C@@H](NC(=S)Nc3cccc(OCc4ccccc4)c3)CC2)nc2c1CCCC2` [compound 2008], for which the class is recorded as 3 (Class 3 The value of percent of control at 10^−7 M was more than 60% or the value of IC50 was more than 200 nM.).
Regarding `CN(C)c1nc(N[C@H]2CC[C@@H](NC(=S)Nc3cccc(Cl)c3Cl)CC2)nc2c1CCCC2` [compound 1971], the class is 3 (Class 3 The value of percent of control at 10^−7 M was more than 60% or the value of IC50 was more than 200 nM.).
Still for that read-out and setting: the value for `Cc1onc(-c2c(Cl)cccc2Cl)c1C(=O)N[C@H]1CC[C@@H](Nc2cc(N(C)C)c3ccccc3n2)CC1` [compound 134] was 1 (Class 1: The value of percent of control at 10^−7 M was less than 40% or the value of IC50 was less than 50 nM.).
On the same count and under the same terms, to `CN(C)c1cc(N[C@H]2CC[C@@H](NC(=O)C(c3ccccc3)c3ccccc3)CC2)nc2ccccc12` [compound 32, N-(cis-4-{[4-(dimethylamino)quinolin-2-yl]amino}cyclohexyl)-2,2-diphenylacetamide] belongs 2 (Class 2: The value of percent of control at 10^−7 M was from 40% to 60% or the value of IC′50 was from 50 nM to 200 nM.).

The same assay, now with this note: activity class 1-3: percent of control at 10^-7 M or IC50.
On to `CCOC(=O)N[C@H]1CC[C@@H](Nc2nccc(N(C)C)n2)CC1` [compound 1627], for which the class was 3 (Class 3 The value of percent of control at 10^−7 M was more than 60% or the value of IC50 was more than 200 nM.).

The assay is the same for the next values; noted with them: activity class per percent of control at 10^-7 M or IC50.
With `C=CCSc1ncccc1C(=O)N[C@H]1CC[C@@H](Nc2nc3c(c(N(C)C)n2)CCCC3)CC1` [compound 1059], the class is recorded as 3 (Class 3 The value of percent of control at 10^−7 M was more than 60% or the value of IC50 was more than 200 nM.).
In the case of `COc1cc(Br)cc(CN[C@H]2CC[C@@H](Nc3cc(N(C)C)c4ccccc4n3)CC2)c1O` [compound 1092], the class is 3 (Class 3 The value of percent of control at 10^−7 M was more than 60% or the value of IC50 was more than 200 nM.).
Still for that read-out and setting: the value for `CN(C)c1nc(N[C@H]2CC[C@@H](NC(=O)Cc3ccccc3C(=O)Nc3ccc(Cl)cc3Cl)CC2)nc2c1CCCC2` [compound 999] was 3 (Class 3 The value of percent of control at 10^−7 M was more than 60% or the value of IC50 was more than 200 nM.).

The same assay, now with this note: class 1-3 by percent of control at 10^-7 M or IC50.
As for `CN(C)c1nc(N[C@H]2CC[C@@H](CNC(=O)c3cccc(Br)c3)CC2)nc2c1CCCC2` [compound 583, 3-bromo-N-[(cis-4-{[4-(dimethylamino)-5,6,7,8-tetrahydroquinazolin-2-yl]amino}cyclohexyl)methyl]benzamide], the class is on record as 2 (Class 2: The value of percent of control at 10^−7 M was from 40% to 60% or the value of IC′50 was from 50 nM to 200 nM.).
For `CN(C)c1nc(N[C@H]2CC[C@@H](NC(=O)c3ccc(SC(F)(F)F)cc3)CC2)nc2c1CCCC2` [compound 567], the class is given as 3 (Class 3 The value of percent of control at 10^−7 M was more than 60% or the value of IC50 was more than 200 nM.).
Take `CN(C)c1ccnc(N[C@H]2CC[C@@H](CNC(=O)c3cc(F)ccc3Cl)CC2)n1` [compound 443]: the class is recorded as 3 (Class 3 The value of percent of control at 10^−7 M was more than 60% or the value of IC50 was more than 200 nM.).
Consider `Cc1onc(-c2c(F)cccc2Cl)c1C(=O)N[C@H]1CC[C@@H](Nc2nc3c(c(N(C)C)n2)CCCC3)CC1` [compound 536, 3-(2-chloro-6-fluorophenyl)-N-(cis-4-{[4-(dimethylamino)-5,6,7,8-tetrahydroquinazolin-2-yl]amino}cyclohexyl)-5-methylisoxazole-4-carboxamide], for which the class is listed as 1 (Class 1: The value of percent of control at 10^−7 M was less than 40% or the value of IC50 was less than 50 nM.).
For `COc1cccc(C(=O)NC[C@H]2CC[C@@H](Nc3nc4c(c(N(C)C)n3)CCCC4)CC2)c1` [compound 582], the class was 3 (Class 3 The value of percent of control at 10^−7 M was more than 60% or the value of IC50 was more than 200 nM.).

Staying with this assay, now noted: class by percent of control at 10^-7 M or IC50.
For `CCc1cccc(C)c1NC(=O)N[C@H]1CC[C@@H](Nc2nccc(N(C)C)n2)CC1` [compound 2182], the class is on record as 3 (Class 3 The value of percent of control at 10^−7 M was more than 60% or the value of IC50 was more than 200 nM.).
Regarding `CN(C)c1ccnc(N[C@H]2CC[C@@H](NC(=O)CCc3ccccc3O)CC2)n1` [compound 818], the class is 3 (Class 3 The value of percent of control at 10^−7 M was more than 60% or the value of IC50 was more than 200 nM.).
For the molecule `CN(C)c1nc(N[C@H]2CC[C@@H](NC(=S)Nc3ccc(Br)cc3C(F)(F)F)CC2)nc2c1CCCC2` [compound 1765], the class was 1 (Class 1: The value of percent of control at 10^−7 M was less than 40% or the value of IC50 was less than 50 nM.).
As to `CN(C)c1ccnc(N[C@H]2CC[C@@H](NC(=O)c3ccc(C(F)(F)F)c(F)c3)CC2)n1` [compound 911], the class was 3 (Class 3 The value of percent of control at 10^−7 M was more than 60% or the value of IC50 was more than 200 nM.).
In the case of `COC(=O)c1ccccc1NC(=O)N[C@H]1CC[C@@H](Nc2nc3c(c(N(C)C)n2)CCCC3)CC1` [compound 1844], the class is recorded as 3 (Class 3 The value of percent of control at 10^−7 M was more than 60% or the value of IC50 was more than 200 nM.).
With `COc1ccc(F)c(CNC[C@H]2CC[C@@H](Nc3cc(N(C)C)c4ccccc4n3)CC2)c1` [compound 1164], the class is 3 (Class 3 The value of percent of control at 10^−7 M was more than 60% or the value of IC50 was more than 200 nM.).
In the case of `CN(C)c1nc(N[C@H]2CC[C@@H](NC(=S)Nc3ccccc3-c3ccccc3)CC2)nc2c1CCCC2` [compound 1770], the class was 3 (Class 3 The value of percent of control at 10^−7 M was more than 60% or the value of IC50 was more than 200 nM.).
For the molecule `CN(C)c1ccnc(N[C@H]2CC[C@@H](NC(=O)CC3CCCC3)CC2)n1` [compound 293], the class was 3 (Class 3 The value of percent of control at 10^−7 M was more than 60% or the value of IC50 was more than 200 nM.).
Regarding `CCOc1ccccc1C(=O)NC[C@H]1CC[C@@H](Nc2nc3c(c(N(C)C)n2)CCCC3)CC1` [compound 634], the class is 3 (Class 3 The value of percent of control at 10^−7 M was more than 60% or the value of IC50 was more than 200 nM.).
Still for that read-out and setting: the value for `COc1cc(CNC[C@H]2CC[C@@H](Nc3nccc(N(C)C)n3)CC2)cc2c1OCO2` [compound 1309] was 1 (Class 1: The value of percent of control at 10^−7 M was less than 40% or the value of IC50 was less than 50 nM.).

The same assay, now with this note: class by percent of control at 10^−7 M or IC50.
With `Cc1cc(N(C)C)nc(N[C@H]2CC[C@@H](NC(=O)C(c3ccccc3)c3ccccc3)CC2)n1` [compound 2993, N-(cis-4-{[4-(dimethylamino)-6-methylpyrimidin-2-yl]amino}cyclohexyl)-2,2-diphenylacetamide], the class is 1 (Class 1: The value of percent of control at 10^−7 M was less than 40% or the value of IC50 was less than 50 nM.).
On the same count and under the same terms, to `Cc1cccc(N(C)C(=O)N[C@H]2CC[C@@H](Nc3ncc(C)c(N(C)C)n3)CC2)c1` [compound 3023, N′-(cis-4-{[4-(dimethylamino)-5-methylpyrimidin-2-yl]amino}cyclohexyl)-N-methyl-N-(3-methylphenyl)urea] belongs 1 (Class 1: The value of percent of control at 10^−7 M was less than 40% or the value of IC50 was less than 50 nM.); to `Cc1cc(N(C)C)nc(N[C@H]2CC[C@@H](NC(=O)c3ccc(C#N)cc3)CC2)n1` [compound 2958, 4-cyano-N-(cis-4-{[4-(dimethylamino)-6-methylpyrimidin-2-yl]amino}cyclohexyl)benzamide], 1 (Class 1: The value of percent of control at 10^−7 M was less than 40% or the value of IC50 was less than 50 nM.); to `Cc1cnc(N[C@H]2CC[C@@H](NC(=O)Cc3ccc(Cl)cc3)CC2)nc1N(C)C` [compound 2872, 2-(4-chlorophenyl)-N-(cis-4-{[4-(dimethylamino)-5-methylpyrimidin-2-yl]amino}cyclohexyl)acetamide], 1 (Class 1: The value of percent of control at 10^−7 M was less than 40% or the value of IC50 was less than 50 nM.).
Take `Cc1cnc(N[C@H]2CC[C@@H](NC(=O)c3cccnc3Oc3cccc(F)c3)CC2)nc1N(C)C` [compound 2886, N-(cis-4-{[4-(dimethylamino)-5-methylpyrimidin-2-yl]amino}cyclohexyl)-2-(3-fluorophenoxy)nicotinamide]: the class was 1 (Class 1: The value of percent of control at 10^−7 M was less than 40% or the value of IC50 was less than 50 nM.).
In the case of `Cc1nc(N[C@H]2CC[C@@H](NC(=O)c3cccc(OC(F)(F)F)c3)CC2)nc(N(C)C)c1C` [compound 2856], the class was 1 (Class 1: The value of percent of control at 10^−7 M was less than 40% or the value of IC50 was less than 50 nM.).

The values are drawn from patent US20050197350A1, “Novel quinoline, tetrahydroquinazoline, and pyrimidine derivatives and methods of treatment related to the use thereof” (TAISHO PHARMACEUTICAL CO., LTD., priority 2003, published 2005).
